{"source": "patent US6071927A", "about": "“Spiro-piperidine derivatives and their use as therapeutic agents” (Merck Sharp & Dohme Ltd., priority 1996, dated 2000)", "system": "NK1 receptor", "assay": "NK1 receptor test by the methods of WO 93/01165, pages 36 to 39", "format": "binding, human", "conditions": "3(R) compound compared with its 3(S) epimer, Example 124", "procedure": "The exemplified compounds of this invention were tested by the methods set out at pages 36 to 39 of International Patent Specification No. WO 93/01165."}
{"substance": "(3R,5R,6S)-3-[2-(2,2,-Difluoroethoxy)-5-(difluoromethoxy)phenyl]-6-phenyl-1-oxa-7-(tert-butoxycarbonyl)aza-spiro[4,5]decane [Example 214]", "values": [{"measurement": "potency relative to epimer", "value": "more potent"}]}
